The source of these data is patent US12030884B2, “Pyrazoloquinoline KRAS inhibitors” (INCYTE CORPORATION, priority 2021, dated 2024).

A short description of data set [1]: Human whole blood stability. Type of data set: in vitro ADME. The following applies: percent remaining, 1 μM, 37° C. As to the method:
The whole blood stability of the exemplified compounds was determined by LC-MS/MS. The 96-Well Flexi-Tier™ Block (Analytical Sales & Services, Inc, Flanders, NJ) was used for the incubation plate containing 1.0 mL glass vials with 0.5 mL of blood per vial (pooled gender, human whole blood sourced from BIOIVT, Hicksville, NY or similar). Blood was pre-warmed in water bath to 37° C. for 30 minutes. 96-deep well analysis plate was prepared with the addition of 100 μL ultrapure water/well. 50 μL chilled ultrapure water/well was added to 96-deep well sample collection plate and covered with a sealing mat. 1 μL of 0.5 mM compound working solution (DMSO:water) was added to the blood in incubation plate to reach final concentrations of 1 μM, mixed by pipetting thoroughly and 50 μL was transferred 50 into the T=0 wells of the sample collection plate. Blood was allowed to sit in the water for 2 minutes and then 400 μL stop solution/well was added (acetonitrile containing an internal standard). The incubation plate was placed in the Incu-Shaker CO2 Mini incubator (Benchmark Scientific, Sayreville, NJ) at 37° C. with shaking at 150 rpm. At 1, 2 and 4-hr, the blood samples were mixed thoroughly by pipetting and 50 μL is transferred into the corresponding wells of the sample collection plate. Blood was allowed to sit in the water for 2 minutes and then 400 μL of stop solution/well was added. The collection plate was sealed and vortexed at 1700 rpm for 3 minutes (VX-2500 Multi-Tube Vortexer, VWR International, Radnor, PA), and samples were then centrifuged in the collection plate at 3500 rpm for 10 minutes (Allegra X-14R Centrifuge Beckman Coulter, Indianapolis, IN). 100 μL of supernatant/well was transferred from the sample collection plate into the corresponding wells of the analysis plate. The final plate was vortexed at 1700 rpm for 1 minute and analyze samples by LC-MS/MS. The peak area ratio of the 1, 2, and 4 hr samples relative to T=0 was used to determine the percent remaining. The natural log of the percent remaining versus time was used determine a slope to calculate the compounds half-life in blood (t1/2=0.693/slope).

In data set [2] the test system is pERK in KRAS G12C cells (MIA PaCa-2, NCI-H358). As to the kind of experiment: Cellular pERK HTRF assay (KRAS_G12C pERK assay). Type of data set: cell-based. Particulars: 4 hours incubation, read-out: G12C_pERK. On the procedure:
MIA PaCa-2 (KRAS G12C; ATCC® CRL-1420), NCI-H358 (KRAS G12C; ATCC® CRL-5807), A427 (KRAS G12D; ATCC® HTB53), HPAFII (KRAS G12D; ATCC® CRL-1997), YAPC (KRAS G12V; DSMZ ACC382), SW480 (KRAS G12V; ATCC® CRL-228) and NCI-H838 (KRAS WT; ATCC® CRL-5844) cells are purchased from ATCC and maintained in RPMI 1640 media supplemented with 10% FBS (Gibco/Life Technologies). The cells are plated at 5000 cells per well (8 uL) into Greiner 384-well low volume, flat-bottom, and tissue culture treated white plates and incubated overnight at […], 5% CO2. The next morning, test compound stock solutions are diluted in media at 3× the final concentration and 4 uL are added to the cells, with a final concentration of 0.1% of DMSO. The cells are incubated with the test compounds for 4 hours (G12C and G12V) or 2 hrs (G12D) at 37° C., 5% CO2. Four uL of 4×lysis buffer with blocking reagent (Cisbio) are added to each well and plates are rotated gently (300 rpm) for 30 minutes at room temperature. Four uL per well of Cisbio anti Phospho-ERK 1/2 d2 is mixed with anti Phospho-ERK 1/2 Cryptate (1:1), and added to each well, incubated overnight in the dark at room temperature. Plates are read on the Pherastar plate reader at 665 nm and 620 nm wavelengths. Data are analyzed in Genedata Screener using SmartFit for IC50 values.

Another data set deals with KRAS G12C (Homo sapiens, UniProt P01116, G12C). As to the kind of experiment: GDP-GTP exchange assay (KRAS_G12C exchange assay). It is filed as biochemical. Particulars: bodipy-loaded KRAS G12C, SOS1, GppNHp; 2 hours pre-incubation with inhibitor; read-out: G12C_exchange. On the procedure: The inhibitor potency of the exemplified compounds was determined in a fluorescence based guanine nucleotide exchange assay, which measures the exchange of bodipy-GDP (fluorescently labeled GDP) for GppNHp (Non-hydrolyzable GTP analog) to generate the active state of KRAS in the presence of SOS1 (guanine nucleotide exchange factor). Inhibitors were serially diluted in DMSO and a volume of 0.1 μL was transferred to the wells of a black low volume 384-well plate. 5 μL/well volume of bodipy-loaded KRAS G12C diluted to 5 nM in assay buffer (25 mM Hepes pH 7.5, 50 mM NaCl, 10 mM MgCl2 and 0.01% Brij-35) was added to the plate and pre-incubated with inhibitor for 2 hours at ambient temperature. Appropriate controls (enzyme with no inhibitor or with a G12C inhibitor (AMG-510)) were included on the plate. The exchange was initiated by the addition of a 5 μL/well volume containing 1 mM GppNHp and 300 nM SOS1 in assay buffer. The 10 μL/well reaction concentration of the bodipy-loaded KRAS G12C, GppNHp, and SOS1 were 2.5 nM, 500 uM, and 150 nM, respectively. The reaction plates were incubated at ambient temperature for 2 hours, a time estimated for complete GDP-GTP exchange in the absence of inhibitor. For the KRAS G12D and G12V mutants, similar guanine nucleotide exchange assays were used with 2.5 nM as final concentration for the bodipy loaded KRAS proteins and with 4 hours and 3 hours incubation after adding GppNHp-SOS1 mixture for G12D and G12V respectively. A cyclic peptide described to selectively bind G12D mutant (Sakamoto et al., BBRC 484.3 (2017), 605-611) or internal compounds with confirmed binding were used as positive controls in the assay plates. Fluorescence intensities were measured on a PheraStar plate reader instrument (BMG Labtech) with excitation at 485 nm and emission at 520 nm.
Either GraphPad prism or Genedata Screener SmartFit was used to analyze the data. The IC50 values were derived by fitting the data to a four parameter logistic equation producing a sigmoidal dose-response curve with a variable Hill coefficient.

In data set [3] the test system is pERK1/2 in MIA PaCa-2 cells (KRAS G12C). Kind of data set: Whole blood pERK1/2 HTRF assay (KRAS_G12C WB pERK assay). Type of data set: cell-based. The following applies: Homo sapiens, compound in whole blood, 4 hours, read-out: G12C_WB_pERK. On the procedure:
MIA PaCa-2 cells (KRAS G12C; ATCC® CRL-1420), HPAF-II (KRAS G12D; ATCC® CRL-1997) and YAPC (KRAS G12V; DSMZ ACC382) are maintained in RPMI 1640 with 10% FBS (Gibco/Life Technologies). For MIA PaCa-2 assay, cells are seeded into 96 well tissue culture plates (Corning #3596) at 25000 cells per well in 100 uL media and cultured for 2 days at 37° C., 5% CO2 before the assay. For HPAF-II and YAPC assay, cells are seeded in 96 well tissue culture plates at 50000 cells per well in 100 uL media and cultured for 1 day before the assay. Whole Blood are added to the 1 uL dots of compounds (prepared in DMSO) in 96 well plates and mixed gently by pipetting up and down so that the concentration of the compound in blood is 1× of desired concentration, in 0.5% DMSO. The media is aspirated from the cells and 50 uL per well of whole blood with test compound is added and incubated for 4 hours for MIA PaCa and YAPC assay; or 2 hours for HPAF-II assay, respectively at 37° C., 5% CO2. After dumping the blood, the plates are gently washed twice by adding PBS to the side of the wells and dumping the PBS from the plate onto a paper towel, tapping the plate to drain well. Fifty ul/well of 1×lysis buffer #1 (Cisbio) with blocking reagent (Cisbio) and Benzonase nuclease (Sigma Cat #E1014-5KU, 1: 10000 final concentration) is then added and incubated at room temperature for 30 minutes with shaking (250 rpm). Following lysis, 16 uL of lysate is transferred into 384-well Greiner small volume white plate using an Assist Plus (Integra Biosciences, NH). Four uL of 1:1 mixture of anti Phospho-ERK 1/2 d2 and anti Phospho-ERK 1/2 Cryptate (Cisbio) is added to the wells using the Assist Plus and incubated at room temperature overnight in the dark. Plates are read on the Pherastar plate reader at 665 nm and 620 nm wavelengths. Data are analyzed in Genedata Screener using SmartFit for IC50 values.
(In general: In TR-FRET formats the signal depends on donor and acceptor labels being close together.)

KRAS G12C, sequence (P01116 1-188 isoform P01116-2 G12C): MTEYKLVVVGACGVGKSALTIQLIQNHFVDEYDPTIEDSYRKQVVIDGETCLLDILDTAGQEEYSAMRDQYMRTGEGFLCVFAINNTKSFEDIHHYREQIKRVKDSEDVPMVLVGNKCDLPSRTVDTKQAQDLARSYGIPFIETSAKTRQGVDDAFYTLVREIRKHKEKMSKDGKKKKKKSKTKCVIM

For the compound `CC#CC(=O)N1CC[C@H](n2ncc3c(O[C@@H](C)[C@@H]4CCCN4C)nc4c(F)c(-c5nccc6cccc(C#N)c56)c(Cl)cc4c32)C[C@H]1CC#N` (single isomer, unassigned) [Example 1a], in data set [1], the “Human whole blood stability at 4 hr” value is reported as “††† (WBS >90%)”. The IC50 (in data set [2]; at KRAS G12C; in data set [3]) was no more than 0.1 µM each time.
Take `CC#CC(=O)N1CC[C@H](n2ncc3c(O[C@@H](C)[C@@H]4CCCN4C)nc4c(F)c(-c5nccc6cccc(C#N)c56)c(Cl)cc4c32)C[C@H]1CC#N` (single isomer, unassigned) [Example 1b]: the IC50 on KRAS G12C is no more than 0.1 µM.
`C=C(F)C(=O)N1CC[C@H](n2ncc3c(O[C@@H](C)[C@@H]4CCCN4C)nc4c(F)c(-c5nccc6cccc(C#N)c56)c(Cl)cc4c32)C[C@H]1CC#N` (single isomer, unassigned) [Example 3a]: in data set [1], the “Human whole blood stability at 4 hr” value was “††† (WBS >90%)”. The IC50 (in data set [2]; at KRAS G12C; in data set [3]) was no more than 0.1 µM throughout.
Take `C=C(F)C(=O)N1CC[C@H](n2ncc3c(O[C@@H](C)[C@@H]4CCCN4C)nc4c(F)c(-c5nccc6cccc(C#N)c56)c(Cl)cc4c32)C[C@H]1CC#N` (single isomer, unassigned) [Example 3b]: at KRAS G12C, the IC50 lay within 0.1 to 1 µM.
`C=C(F)C(=O)N1CC[C@H](n2ncc3c(N4CC(N(C)CC)C4)nc4c(F)c(-c5c(C)c(C)cc6[nH]ncc56)c(Cl)cc4c32)C[C@H]1CC#N` (single isomer, unassigned) [Example 4a]: the “Human whole blood stability at 4 hr” value in data set [1] is listed as “†† (WBS >70% but ≤90%)”. In addition, the IC50 (in data set [2]; at KRAS G12C; in data set [3]) was no more than 0.1 µM in each case.
As to `C=C(F)C(=O)N1CC[C@H](n2ncc3c(N4CC(N(C)CC)C4)nc4c(F)c(-c5c(C)c(C)cc6[nH]ncc56)c(Cl)cc4c32)C[C@H]1CC#N` (single isomer, unassigned) [Example 4b], on KRAS G12C, the IC50 fell in the range of 1 to 5 µM.
The same measure, in the same setting: as for `C=C(F)C(=O)N1CC[C@H](n2ncc3c(O[C@@H](C)[C@@H]4CCCN4C)nc4c(F)c(-c5cccc6cccc(C#N)c56)c(Cl)cc4c32)C[C@H]1CC#N` (single isomer, unassigned) [Example 5a], the figure is 0.1 to 1 µM.
Turning to `C=C(F)C(=O)N1CC[C@H](n2ncc3c(O[C@@H](C)[C@@H]4CCCN4C)nc4c(F)c(-c5cccc6cccc(C#N)c56)c(Cl)cc4c32)C[C@H]1CC#N` (single isomer, unassigned) [Example 5b], the IC50 (in data set [2]; at KRAS G12C; in data set [3]) was no more than 0.1 µM in each case.
Take `CC#CC(=O)N1CC[C@H](n2ncc3c(O[C@@H](C)[C@@H]4CCCN4C)nc4c(F)c(-c5cccc6cccc(C#N)c56)c(C)cc4c32)C[C@H]1CC#N` (single isomer, unassigned) [Example 7]: the “Human whole blood stability at 4 hr” value in data set [1] is recorded as “†† (WBS >70% but ≤90%)”. Moreover, the IC50 (in data set [2]; at KRAS G12C; in data set [3]) was no more than 0.1 µM in each case.
With `COC/C=C/C(=O)N1CC[C@H](n2ncc3c(O[C@@H](C)[C@@H]4CCCN4C)nc4c(F)c(-c5cccc6cccc(C#N)c56)c(Cl)cc4c32)C[C@H]1CC#N` [Example 6a, 8-(8-chloro-1-((2S,4S)-2-(cyanomethyl)-1-((E)-4-methoxybut-2-enoyl)piperidin-4-yl)-6-fluoro-4-((S)-1-((S)-1-methylpyrrolidin-2-yl)ethoxy)-1H-pyrazolo[4,3-c]quinolin-7-yl)-1-naphthonitrile], the IC50 at KRAS G12C is no more than 0.1 µM.
`COC/C=C/C(=O)N1CC[C@H](n2ncc3c(O[C@@H](C)[C@@H]4CCCN4C)nc4c(F)c(-c5cccc6cccc(C#N)c56)c(Cl)cc4c32)C[C@H]1CC#N` [Example 6b, 8-(8-chloro-1-((2S,4S)-2-(cyanomethyl)-1-((E)-4-methoxybut-2-enoyl)piperidin-4-yl)-6-fluoro-4-((S)-1-((S)-1-methylpyrrolidin-2-yl)ethoxy)-1H-pyrazolo[4,3-c]quinolin-7-yl)-1-naphthonitrile]: the “Human whole blood stability at 4 hr” value in data set [1] was “††† (WBS >90%)”. Further, the IC50 in data set [2] and in data set [3] was no more than 0.1 µM each time.
